Experimental data published in patent US9422557B2, “Methods and compositions for weed control” (Monsanto Technology LLC, priority 2011, dated 2016).

How the values were obtained:
[1] = system: Glyphosate-sensitive Palmer amaranth (A. palmeri R-22) plants; assay: Topical treatment of Palmer amaranth with pooled ssDNA ACCase oligonucleotides followed by clethodim; plant height; type: in vivo, Amaranthus palmeri; details: clethodim (SelectMax) 272 g ai/ha with 1% COC; ssDNA pool at 16 nmol applied 24 and 48 hours before herbicide where used; height followed up to twelve days after herbicide; four replications; FIG. 1
Method: (§1) Glyphosate-sensitive Palmer amaranth (A. palmeri R-22) plants where grown in the greenhouse (30/20 C day/night T; 14 hour photoperiod) in 4 inch square pots containing Sun Gro® Redi-Earth and 3.5 kg/cubic meter Osmocote® 14-14-14 fertilizer. Palmer amaranth plants at 5 to 10 cm in height were treated with a pool of eight 8 short (21-22mer) single-strand antisense oligo DNA polynucleotides (ssDNA) targeting ACCase shown in Table 2 at 16 nmol, formulated in 10 millimolar sodium phosphate buffer (pH 6.8) containing 2% ammonium sulfate and 0.5% Silwet L-77. Plants were treated manually by pipetting 10 μL of polynucleotide solution on four fully expanded mature leaves, for a total of 40 microliters of solution per plant. Twenty-four and forty-eight hours later, the plants were treated with clethodim (SelectMax®, 0.97 lb ai per gallon; ACCase inhibitor) at 272 g ai/ha, crop oil concentrate (COC) at 1% was added to the herbicide treatments. Four replications of each treatment were conducted. Plant height was determined just before ssDNA treatment and at intervals upto twelve days after herbicide treatments to determine effect of the oligonucleotide and herbicide treatments.

[2] = system: Glyphosate-sensitive Palmer amaranth (A. palmeri R-22) plants; assay: Follow-up test of individual ACCase oligonucleotides with herbicide 24 hours later; growth effects; type: in vivo, Amaranthus palmeri; details: 4 nmol oligonucleotide per plant, four plants; herbicide applied 24 hours after the oligonucleotide treatment
Method: as §1
An additional test was conducted to determine which of the ACCase oligonucleotides was responsible for the result. […]

Compound	reduction in plant height relative to the untreated control [1]	reduction of plant growth relative to untreated plants (average) [2]
CCSC(C)CC1CC(=O)C(C(CC)=NOC/C=C/Cl)=C(O)C1 (centres unmarked) [clethodim, 2-[1-[[[(2E)-3-chloro-2-propen-1-yl]oxy]imino]propyl]-5-[2-(ethylthio)propyl]-3-hydroxy-2-cyclohexen-1-one]	0%	
oligo6: single-strand antisense DNA oligo targeting ACCase, GCACCACGAGGATCACAAGAA (DNA, backbone and methylation of C not given here; listed as Amaranthus palmeri)		40%
